Columns and labels:
clinical [1] = conditions: human, in vivo, iv
clinical [2] = conditions: human, in vivo, iv, CL
clinical [3] = conditions: human, in vivo, iv; remark: listed apart in the source
clinical [4] = conditions: human, in vivo, iv, t1/2
clinical [5] = conditions: human, in vivo, iv, Vdss

| Compound | MRT (clinical [1]) | clearance (clinical [2]) | fraction unbound (clinical [3]) | half-life (clinical [4]) | Vd (clinical [5]) |
| --- | --- | --- | --- | --- | --- |
| Cc1cn([C@H]2C=C[C@@H](CO)O2)c(=O)[nH]c1=O [STAVUDINE] | 1.4 h | 8.2 mL/min/kg | 1 | 1.4 h | 0.67 L/kg |
| CCN[C@@H](C)Cc1cccc(C(F)(F)F)c1 [DEXFENFLURAMINE] | 18 h | 11 mL/min/kg | 0.66 | 14 h | 11 L/kg |
| CC(=O)[C@]1(O)Cc2c(O)c3c(c(O)c2[C@@H](O[C@H]2C[C@H](N)[C@H](O)[C@H](C)O2)C1)C(=O)c1ccccc1C3=O [IDARUBICIN] | 26 h | 24 mL/min/kg | 0.076 | 16 h | 38 L/kg |
| CCCNC(C)C(=O)Nc1ccccc1C (stereo not given) [PRILOCAINE] | 2.2 h | 29 mL/min/kg | 0.72 | 1.8 h | 3.7 L/kg |
| CCCCCN(C)CCC(O)(P(=O)(O)O)P(=O)(O)O [IBANDRONIC ACID] | 5.1 h | 1.8 mL/min/kg | 0.15 | 14 h | 0.55 L/kg |
| CC(=O)O[C@H]1C[C@]2(C)CC[C@H]3[C@@H]4C[C@H](N5CC[N+](C)(C)CC5)[C@H](OC(C)=O)[C@@]4(C)CC[C@@H]3[C@@]2(C)C[C@@H]1N1CC[N+](C)(C)CC1.[Br-].[Br-] [PIPERCURONIUM] | 1.9 h | 3 mL/min/kg | 0.98 | 1.9 h | 0.35 L/kg |
| Cc1onc(-c2ccccc2)c1C(=O)N[C@@H]1C(=O)N2[C@@H]1SC(C)(C)[C@@H]2C(=O)O [OXACILLIN] | 0.5 h | 6.3 mL/min/kg | 0.07 | 0.7 h | 0.19 L/kg |
| CC(=O)O[C@@]12CO[C@@H]1C[C@H](O)[C@@]1(C)C(=O)[C@H](O)C3=C(C)[C@@H](OC(=O)[C@H](O)[C@@H](NC(=O)OC(C)(C)C)c4ccccc4)C[C@@](O)([C@@H](OC(=O)c4ccccc4)[C@H]21)C3(C)C.O.O.O [DOCETAXEL] | 2.5 h | 14 mL/min/kg | 0.04 | 11 h | 2.1 L/kg |
| CC(=O)N(CC(O)CO)c1c(I)c(C(=O)NCC(O)CO)c(I)c(C(=O)NCC(O)CO)c1I (stereo not given) [IOHEXOL] | 1.3 h | 2 mL/min/kg | 1 | 1.5 h | 0.16 L/kg |
| O=C1OC2(c3ccc(O)cc3Oc3cc(O)ccc32)c2ccccc21 [FLUORESCEIN] | 1.8 h | 1.3 mL/min/kg | 0.11 | 1.6 h | 0.14 L/kg |
| CCN(C)C(=O)Oc1cccc([C@H](C)N(C)C)c1 [RIVASTIGMINE] | 1.9 h | 12 mL/min/kg | 0.6 | 1.4 h | 1.3 L/kg |
| CCN(CC)CCS(=O)(=O)[C@@H]1CCN2C(=O)c3coc(n3)CC(=O)C[C@H](O)/C=C(C)/C=C/CNC(=O)/C=C/[C@@H](C)[C@@H](C(C)C)OC(=O)[C@@H]12 [DALFOPRISTIN] | 0.41 h | 16 mL/min/kg | 0.82 | 0.74 h | 0.39 L/kg |
| COc1ccc2c(c1)c(CC(=O)O)c(C)n2C(=O)c1ccc(Cl)cc1 [INDOMETHACIN] | 1.2 h | 1.3 mL/min/kg | 0.01 | 1.4 h | 0.096 L/kg |
| CCN[C@@H]1C[C@H](N)[C@@H](O[C@H]2OC(CN)=CC[C@H]2N)[C@H](O)[C@H]1O[C@H]1OC[C@](C)(O)[C@H](NC)[C@H]1O [NETILMICIN] | 2.2 h | 0.55 mL/min/kg | 1 | 3.2 h | 0.073 L/kg |
| CCCC1C(=O)N2C(N(C)C)=Nc3ccc(C)cc3N2C1=O (stereo not given) [APAZONE] | 14 h | 0.14 mL/min/kg | 0.004 | 17 h | 0.12 L/kg |
| NC(=O)OC[C@@H]1[C@H](NC(=O)/C(=N\OCC(=O)O)c2csc(N)n2)C(=O)N1S(=O)(=O)O [CARUMONAM] | 2 h | 1.5 mL/min/kg | 0.72 | 1.6 h | 0.18 L/kg |
| C#C[C@]1(O)CC[C@H]2[C@@H]3CCc4cc(O)ccc4[C@H]3CC[C@@]21C [ETHINYL ESTRADIOL] | 11 h | 7 mL/min/kg | 0.014 | 9.7 h | 4.3 L/kg |
| CC(=O)[C@H]1CC[C@H]2[C@@H]3CC[C@@H]4C[C@H](O)CC[C@]4(C)[C@H]3CC[C@]12C [ELTANOLONE] | 1.5 h | 22 mL/min/kg | 0.01 | 4.7 h | 2 L/kg |
| CCN(CC)CCNC(=O)c1ccc(NC(C)=O)cc1 [ACECAINIDE] | 7.9 h | 4 mL/min/kg | 0.9 | 6.4 h | 1.9 L/kg |
| C[C@H](O)C(=O)Nc1c(I)c(C(=O)NC(CO)CO)c(I)c(C(=O)NC(CO)CO)c1I [IOPAMIDOL] | 2.5 h | 1.9 mL/min/kg | 1 | 2.1 h | 0.28 L/kg |

| Compound | MRT (clinical [1]) | clearance (clinical [2]) | fraction unbound (clinical [3]) | half-life (clinical [4]) | Vd (clinical [5]) |
| --- | --- | --- | --- | --- | --- |
| CCC[C@@H]1C[C@@H](C(=O)N[C@@H]([C@H]2O[C@H](SC)[C@H](O)[C@@H](O)[C@H]2O)[C@@H](C)O)N(C)C1 [LINCOMYCIN] | 7.5 h | 2.1 mL/min/kg | 0.14 | 5.6 h | 1 L/kg |
| CCCC(C)C1(CC)C(=O)NC(=O)NC1=O (stereo not given) [PENTOBARBITAL] | 32 h | 0.47 mL/min/kg | 0.39 | 22 h | 0.91 L/kg |
| C[C@@H](CN1CC(=O)NC(=O)C1)N1CC(=O)NC(=O)C1 [DEXRAZOXANE] | 3 h | 3.1 mL/min/kg | 1 | 2.5 h | 0.55 L/kg |
| COCC(=O)Nc1c(I)c(C(=O)NCC(O)CO)c(I)c(C(=O)N(C)CC(O)CO)c1I (stereo not given) [IOPROMIDE] | 2.6 h | 1.4 mL/min/kg | 0.99 | 2.6 h | 0.22 L/kg |
| C[C@@H](O)[C@H]1C(=O)N2C(C(=O)O)=C(S[C@H]3C[C@@H](C(=O)N4CC[C@H](NC(=O)CNC(=N)N)C4)N(C)C3)[C@H](C)[C@H]12 [TOMOPENEM] | 2 h | 1.9 mL/min/kg | 0.91 | 1.7 h | 0.23 L/kg |
| CO[C@@]1(NC(=O)C(C(=O)O)c2ccc(O)cc2)C(=O)N2C(C(=O)O)=C(CSc3nnnn3C)CO[C@@H]21 (stereo not given in full) [MOXALACTAM] | 3.9 h | 0.72 mL/min/kg | 0.39 | 2.9 h | 0.17 L/kg |
| CC1(C)S[C@@H]2[C@H](NC(=O)[C@H](C(=O)O)c3ccsc3)C(=O)N2[C@H]1C(=O)O [TICARCILLIN] | 1.5 h | 1.8 mL/min/kg | 0.55 | 1 h | 0.16 L/kg |
| CC(CN(C)C)CN1c2ccccc2CCc2ccccc21 (stereo not given) [TRIMIPRAMINE] | 17 h | 16 mL/min/kg | 0.051 | 23 h | 16 L/kg |
| NNc1nncc2ccccc12 [HYDRALAZINE] | 0.29 h | 85 mL/min/kg | 0.12 | 0.96 h | 1.5 L/kg |
| CSc1ccc(C(=O)c2[nH]c(=O)[nH]c2C)cc1 [ENOXIMONE] | 1 h | 29 mL/min/kg | 0.3 | 1 h | 1.8 L/kg |
| CCCN1CCCC[C@H]1C(=O)Nc1c(C)cccc1C [ROPIVACAINE] | 2.3 h | 5.5 mL/min/kg | 0.06 | 2.2 h | 0.75 L/kg |
| CC(=O)Oc1ccccc1C(=O)O [ASPIRIN] | 0.3 h | 12 mL/min/kg | 0.68 | 0.26 h | 0.22 L/kg |
| CCCCCCCCCC(=O)N[C@@H](Cc1c[nH]c2ccccc12)C(=O)N[C@H](CC(N)=O)C(=O)N[C@@H](CC(=O)O)C(=O)N[C@@H]1C(=O)NCC(=O)N[C@@H](CCCN)C(=O)N[C@@H](CC(=O)O)C(=O)N[C@H](C)C(=O)N[C@@H](CC(=O)O)C(=O)NCC(=O)N[C@H](CO)C(=O)N[C@@H]([C@H](C)CC(=O)O)C(=O)N[C@@H](CC(=O)c2ccccc2N)C(=O)O[C@@H]1C | 9.2 h | 0.16 mL/min/kg | 0.083 | 8.1 h | 0.088 L/kg |
| COc1cc(NS(C)(=O)=O)ccc1Nc1c2ccccc2nc2ccccc12 [AMSACRINE] | 6.2 h | 4.3 mL/min/kg | 0.029 | 4.7 h | 1.6 L/kg |
| CC[C@@]1(O)C(=O)OCc2c1cc1n(c2=O)Cc2cc3c(N)cccc3nc2-1 [9-AMINOCAMPTOTHECIN] | 5.6 h | 6.5 mL/min/kg | 0.003 | 7 h | 2.2 L/kg |
| C=C[C@@]1(O)C[N+]2(C)CC[C@H]1C[C@@H]2[C@@H](O)c1ccnc2ccc(OC)cc12 | 9.4 h | 12 mL/min/kg | 0.47 | 6.7 h | 6.8 L/kg |
| CC1(C)S[C@@H]2[C@H](NC(=O)[C@H](NC(=O)N3CCNC3=O)c3ccccc3)C(=O)N2[C@H]1C(=O)O [AZLOCILLIN] | 1.7 h | 2.5 mL/min/kg | 0.65 | 1.2 h | 0.26 L/kg |
| NS(=O)(=O)c1cc(C(=O)O)cc(N2CCCC2)c1Oc1ccccc1 [PIRETANIDE] | 0.91 h | 3.1 mL/min/kg | 0.058 | 1.3 h | 0.17 L/kg |
| COc1cc2c3cc1Oc1cc(ccc1O)C[C@@H]1c4c(cc(OC)c(O)c4Oc4ccc(cc4)C[C@@H]3N(C)CC2)CC[N+]1(C)C.[Cl-] | 2.2 h | 3.4 mL/min/kg | 0.58 | 2 h | 0.45 L/kg |
| CCn1cc(C(=O)O)c(=O)c2cc(F)c(N3CCNCC3)nc21 [ENOXACIN] | 6.2 h | 5.4 mL/min/kg | 0.8 | 5.1 h | 2 L/kg |
